Experimental data taken from patent US20240409585A1, “MACROCYCLIC IMMUNOMODULATORS” (priority 2021, published 2024).
Bridge positions count the residues as written; N and C are the ends. Square brackets hold non-standard residues; d marks the D form. Peptide text beside a SMILES is read from it. * marks the point of attachment. Phe(4-COOH) = N[C@@H](Cc1ccc(C(=O)O)cc1)C(=O)O; Bip = N[C@@H](Cc1ccc(-c2ccccc2)cc1)C(=O)O; Phe(3-Me) = Cc1cccc(C[C@H](N)C(=O)O)c1; 3Pal = N[C@@H](Cc1cccnc1)C(=O)O; 4Pal = N[C@@H](Cc1ccncc1)C(=O)O; Cit = NC(=O)NCCC[C@H](N)C(=O)O; aThr = C[C@H](O)[C@H](N)C(=O)O; Carboxymethyl = O=C(O)C*; NMeA = CN[C@@H](C)C(=O)O; Dab = NCC[C@H](N)C(=O)O; Dap = NC[C@H](N)C(=O)O

These compounds were tested against T1, PE-labeled human PD-L1-Ig binding to Jurkat cell line over-expressing human PD-1 (Jurkat-PD-1) (Homo sapiens, UniProt Q15116) (assay: Jurkat-PD-1 Cell Binding High-Content Screening Assay (CBA): Method 1). Conditions: Jurkat HPDL1 PD1 IC50 (uM) (Method 1), Jurkat-hPD-1 cells, PE-labeled PD-L1-Ig 20 nM final.
T1 construct: expressed in transfected cells; host or cells: Jurkat
T1 sequence (Q15116 25-288): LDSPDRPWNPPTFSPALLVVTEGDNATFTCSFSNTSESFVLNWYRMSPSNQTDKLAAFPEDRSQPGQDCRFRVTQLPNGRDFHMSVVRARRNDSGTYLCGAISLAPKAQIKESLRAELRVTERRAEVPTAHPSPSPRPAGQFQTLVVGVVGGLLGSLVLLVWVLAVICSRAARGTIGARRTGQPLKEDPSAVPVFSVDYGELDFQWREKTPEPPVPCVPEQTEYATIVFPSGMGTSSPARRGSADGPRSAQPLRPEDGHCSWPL

SMILES | IC50 [µM]
C=C1N[C@@H](Cc2ccccc2)C(=O)N(C)[C@@H](C)C(=O)N[C@H](CC(C)C)C(=O)N[C@@H](CC(N)=O)C(=O)N[C@@H](CC(C)C)C(=O)N[C@@H](Cc2ccccc2)C(=O)N[C@@H](CO)C(=O)N[C@H](C(=O)N[C@@H](C)C(N)=O)CSCC(=O)N[C@@H](Cc2ccc(OCC(=O)O)cc2)C(=O)N[C@@H](Cc2ccc(C(=O)O)cc2)C(=O)N[C@@H](CC(=O)O)C(=O)N[C@@H](Cc2cccc(C)c2)C(=O)N[C@@H](CC(C)C)C(=O)N[C@H]1Cc1ccc(-c2ccccc2)cc1 [Compound 1585] | 0.73

Same assay, conditions: Jurkat-hPD-1 cells, PE-labeled PD-L1-Ig 20 nM final; read-out: Jurkat HPDL1 PD1 IC50 (uM) (Method 1)

SMILES | IC50 [µM]
CC(C)C[C@@H]1NC(=O)[C@H](CCN)NC(=O)[C@@H](CC(C)C)NC(=O)[C@H](C)N(C)C(=O)[C@H](CCCNC(N)=O)NC(=O)[C@H](Cc2ccc(-c3ccccc3)cc2)NC(=O)[C@H](C(C)C)NC(=O)[C@H](Cc2c[nH]c3ccccc23)NC(=O)[C@H](CC(=O)O)NC(=O)[C@H](Cc2ccc(C(=O)O)cc2)NC(=O)[C@H](Cc2ccc(OCC(=O)O)cc2)NC(=O)CSC[C@@H](C(=O)N[C@@H](C)C(N)=O)NC(=O)[C@H]([C@@H](C)O)NC(=O)[C@H](C(C)C)NC1=O [Compound 1573] ({CH2CO}-Y(Carboxymethyl)[Phe(4-COOH)]DWV[Bip][Cit][NMeA][dL][Dab]LVTCA-NH2; thioether N-14) | 0.05
CC(C)C[C@@H]1NC(=O)[C@H](CCN)NC(=O)[C@@H](CC(C)C)NC(=O)[C@H](C)N(C)C(=O)[C@H](CCC(=O)O)NC(=O)[C@H](Cc2ccc(-c3ccccc3)cc2)NC(=O)[C@H](C(C)C)NC(=O)[C@H](Cc2c[nH]c3ccccc23)NC(=O)[C@H](CC(=O)O)NC(=O)[C@H](Cc2ccc(OCC(=O)O)cc2)NC(=O)[C@H](Cc2ccncc2)NC(=O)CSC[C@@H](C(=O)N[C@@H](C)C(N)=O)NC(=O)[C@H](CO)NC(=O)[C@H](C(C)C)NC1=O [Compound 1575] ({CH2CO}-[4Pal]Y(Carboxymethyl)DWV[Bip]E[NMeA][dL][Dab]LVSCA-NH2; thioether N-14) | 0.05
CC(C)C[C@@H]1NC(=O)[C@H](CCN)NC(=O)[C@@H](CC(C)C)NC(=O)[C@H](C)N(C)C(=O)[C@H](CCC(=O)O)NC(=O)[C@H](Cc2ccc(-c3ccccc3)cc2)NC(=O)[C@H](C(C)C)NC(=O)[C@H](Cc2c[nH]c3ccccc23)NC(=O)[C@H](CC(=O)O)NC(=O)[C@H](Cc2ccncc2)NC(=O)[C@H](CN)NC(=O)CSC[C@@H](C(=O)N[C@@H](C)C(N)=O)NC(=O)[C@H](CO)NC(=O)[C@H](C(C)C)NC1=O [Compound 1576] ({CH2CO}-[Dap][4Pal]DWV[Bip]E[NMeA][dL][Dab]LVSCA-NH2; thioether N-14) | 0.11
CC(C)C[C@@H]1NC(=O)[C@H](CCN)NC(=O)[C@@H](CC(C)C)NC(=O)[C@H](C)N(C)C(=O)[C@H](CCC(=O)O)NC(=O)[C@H](Cc2ccc(-c3ccccc3)cc2)NC(=O)[C@H](C(C)C)NC(=O)[C@H](Cc2c[nH]c3ccccc23)NC(=O)[C@H](CC(=O)O)NC(=O)[C@H](Cc2ccc(OCC(=O)O)cc2)NC(=O)[C@H](Cc2ccc(OCC(=O)O)cc2)NC(=O)CSC[C@@H](C(=O)N[C@@H](C)C(N)=O)NC(=O)[C@H](CO)NC(=O)[C@H](C(C)C)NC1=O [Compound 1577] ({CH2CO}-Y(Carboxymethyl)Y(Carboxymethyl)DWV[Bip]E[NMeA][dL][Dab]LVSCA-NH2; thioether N-14) | 0.03
Cc1cccc(C[C@@H]2NC(=O)[C@H](CC(=O)O)NC(=O)[C@H](Cc3ccc(OCC(=O)O)cc3)NC(=O)[C@H](CN)NC(=O)CSC[C@@H](C(=O)N[C@@H](C)C(N)=O)NC(=O)[C@H](CO)NC(=O)[C@H](C(C)C)NC(=O)[C@H](CC(C)C)NC(=O)[C@H](CC(N)=O)NC(=O)[C@@H](C)NC(=O)[C@H](C)N(C)C(=O)[C@H](C(C)C)NC(=O)[C@H](Cc3ccc(-c4ccccc4)cc3)NC(=O)[C@H](CC(C)C)NC2=O)c1 [Compound 1582] ({CH2CO}-[Dap]Y(Carboxymethyl)D[Phe(3-Me)]L[Bip]V[NMeA][dA]NLVSCA-NH2; thioether N-14) | 0.02
Cc1cccc(C[C@@H]2NC(=O)[C@H](CC(=O)O)NC(=O)[C@H](Cc3cccnc3)NC(=O)[C@H](CN)NC(=O)CSC[C@@H](C(=O)N[C@@H](C)C(N)=O)NC(=O)[C@H](CO)NC(=O)[C@H](C(C)C)NC(=O)[C@H](CC(C)C)NC(=O)[C@H](CC(N)=O)NC(=O)[C@@H](C)NC(=O)[C@H](C)N(C)C(=O)[C@H](C(C)C)NC(=O)[C@H](Cc3ccc(-c4ccccc4)cc3)NC(=O)[C@H](CC(C)C)NC2=O)c1 [Compound 1584] ({CH2CO}-[Dap][3Pal]D[Phe(3-Me)]L[Bip]V[NMeA][dA]NLVSCA-NH2; thioether N-14) | 0.02

Next, values leading:

IC50 [µM] | SMILES
0.01 | CC(C)C[C@@H]1NC(=O)[C@H](CCN)NC(=O)[C@@H](CC(C)C)NC(=O)[C@H](C)N(C)C(=O)[C@H](C(C)C)NC(=O)[C@H](Cc2ccc(-c3ccccc3)cc2)NC(=O)[C@H](C(C)C)NC(=O)[C@H](Cc2c[nH]c3ccccc23)NC(=O)[C@H](CC(=O)O)NC(=O)[C@H](Cc2ccc(C(=O)O)cc2)NC(=O)[C@H](Cc2ccc(OCC(=O)O)cc2)NC(=O)CSC[C@@H](C(=O)N[C@@H](C)C(N)=O)NC(=O)[C@H]([C@@H](C)O)NC(=O)[C@H](C(C)C)NC1=O [Compound 1570] ({CH2CO}-Y(Carboxymethyl)[Phe(4-COOH)]DWV[Bip]V[NMeA][dL][Dab]LVTCA-NH2; thioether N-14)
0.01 | Cc1cccc(C[C@@H]2NC(=O)[C@H](CC(=O)O)NC(=O)[C@H](Cc3ccc(C(=O)O)cc3)NC(=O)[C@H](Cc3ccc(OCC(=O)O)cc3)NC(=O)CSC[C@@H](C(=O)N[C@@H](C)C(N)=O)NC(=O)[C@H]([C@@H](C)O)NC(=O)[C@H](C(C)C)NC(=O)[C@H](CC(C)C)NC(=O)[C@H](CCN)NC(=O)[C@@H](CC(C)C)NC(=O)[C@H](C)N(C)C(=O)[C@H](C(C)C)NC(=O)[C@H](Cc3ccc(-c4ccccc4)cc3)NC(=O)[C@H](C(C)C)NC2=O)c1 [Compound 1571] ({CH2CO}-Y(Carboxymethyl)[Phe(4-COOH)]D[Phe(3-Me)]V[Bip]V[NMeA][dL][Dab]LVTCA-NH2; thioether N-14)
0.01 | CC[C@H](C)[C@@H]1NC(=O)[C@H](Cc2ccc(-c3ccccc3)cc2)NC(=O)[C@H](C(C)C)NC(=O)[C@H](Cc2cccc(C)c2)NC(=O)[C@H](CC(=O)O)NC(=O)[C@H](Cc2ccc(C(=O)O)cc2)NC(=O)[C@H](Cc2ccc(OCC(=O)O)cc2)NC(=O)CSC[C@@H](C(=O)N[C@@H](C)C(N)=O)NC(=O)[C@H]([C@@H](C)O)NC(=O)[C@H](C(C)C)NC(=O)[C@H](CC(C)C)NC(=O)[C@H](CCN)NC(=O)[C@@H](CC(C)C)NC(=O)[C@H](C)N(C)C1=O [Compound 1572] ({CH2CO}-Y(Carboxymethyl)[Phe(4-COOH)]D[Phe(3-Me)]V[Bip]I[NMeA][dL][Dab]LVTCA-NH2; thioether N-14)
0.02 | Cc1cccc(C[C@@H]2NC(=O)[C@H](CC(=O)O)NC(=O)[C@H](Cc3ccc(C(=O)O)cc3)NC(=O)[C@H](Cc3ccc(OCC(=O)O)cc3)NC(=O)CSC[C@@H](C(=O)N[C@@H](C)C(N)=O)NC(=O)[C@H]([C@@H](C)O)NC(=O)[C@H](C(C)C)NC(=O)[C@H](CC(C)C)NC(=O)[C@H](CCN)NC(=O)[C@@H](CC(C)C)NC(=O)[C@H](C)N(C)C(=O)[C@H](CCCNC(N)=O)NC(=O)[C@H](Cc3ccc(-c4ccccc4)cc3)NC(=O)[C@H](C(C)C)NC2=O)c1 [Compound 1574] ({CH2CO}-Y(Carboxymethyl)[Phe(4-COOH)]D[Phe(3-Me)]V[Bip][Cit][NMeA][dL][Dab]LVTCA-NH2; thioether N-14)
0.01 | Cc1cccc(C[C@@H]2NC(=O)[C@H](CC(=O)O)NC(=O)[C@H](Cc3ccc(OCC(=O)O)cc3)NC(=O)[C@H](Cc3ccc(OCC(=O)O)cc3)NC(=O)CSC[C@@H](C(=O)N[C@@H](C)C(N)=O)NC(=O)[C@H]([C@H](C)O)NC(=O)[C@H](C(C)C)NC(=O)[C@H](CC(C)C)NC(=O)[C@H](CCN)NC(=O)[C@@H](CC(C)C)NC(=O)[C@H](C)N(C)C(=O)[C@H](C(C)C)NC(=O)[C@H](Cc3ccc(-c4ccccc4)cc3)NC(=O)[C@H](C(C)C)NC2=O)c1 [Compound 1578] ({CH2CO}-Y(Carboxymethyl)Y(Carboxymethyl)D[Phe(3-Me)]V[Bip]V[NMeA][dL][Dab]LV[aThr]CA-NH2; thioether N-14)
0.02 | Cc1cccc(C[C@@H]2NC(=O)[C@H](CC(=O)O)NC(=O)[C@H](Cc3ccc(C(=O)O)cc3)NC(=O)[C@H](Cc3ccc(OCC(=O)O)cc3)NC(=O)CSC[C@@H](C(=O)N[C@@H](C)C(N)=O)NC(=O)[C@H](CO)NC(=O)[C@H](C(C)C)NC(=O)[C@H](CC(C)C)NC(=O)[C@H](CC(N)=O)NC(=O)[C@@H](C)NC(=O)[C@H](C)N(C)C(=O)[C@H](C(C)C)NC(=O)[C@H](Cc3ccc(-c4ccccc4)cc3)NC(=O)[C@H](CC(C)C)NC2=O)c1 [Compound 1579] ({CH2CO}-Y(Carboxymethyl)[Phe(4-COOH)]D[Phe(3-Me)]L[Bip]V[NMeA][dA]NLVSCA-NH2; thioether N-14)
0.01 | Cc1cccc(C[C@@H]2NC(=O)[C@H](CC(=O)O)NC(=O)[C@H](Cc3ccc(OCC(=O)O)cc3)NC(=O)[C@H](Cc3ccc(OCC(=O)O)cc3)NC(=O)CSC[C@@H](C(=O)N[C@@H](C)C(N)=O)NC(=O)[C@H](CO)NC(=O)[C@H](C(C)C)NC(=O)[C@H](CC(C)C)NC(=O)[C@H](CC(N)=O)NC(=O)[C@@H](C)NC(=O)[C@H](C)N(C)C(=O)[C@H](C(C)C)NC(=O)[C@H](Cc3ccc(-c4ccccc4)cc3)NC(=O)[C@H](CC(C)C)NC2=O)c1 [Compound 1580] ({CH2CO}-Y(Carboxymethyl)Y(Carboxymethyl)D[Phe(3-Me)]L[Bip]V[NMeA][dA]NLVSCA-NH2; thioether N-14)
0.01 | Cc1cccc(C[C@@H]2NC(=O)[C@H](CC(=O)O)NC(=O)[C@H](Cc3ccncc3)NC(=O)[C@H](Cc3ccc(OCC(=O)O)cc3)NC(=O)CSC[C@@H](C(=O)N[C@@H](C)C(N)=O)NC(=O)[C@H](CO)NC(=O)[C@H](C(C)C)NC(=O)[C@H](CC(C)C)NC(=O)[C@H](CC(N)=O)NC(=O)[C@@H](C)NC(=O)[C@H](C)N(C)C(=O)[C@H](C(C)C)NC(=O)[C@H](Cc3ccc(-c4ccccc4)cc3)NC(=O)[C@H](CC(C)C)NC2=O)c1 [Compound 1583] ({CH2CO}-Y(Carboxymethyl)[4Pal]D[Phe(3-Me)]L[Bip]V[NMeA][dA]NLVSCA-NH2; thioether N-14)
